Reference: publication PMC12422966, “ACLY inhibition promotes tumour immunity and suppresses liver cancer” (Nature, 2025)

Target: T1, SLC27A2 (FATP2, ACSVL1) (Homo sapiens, UniProt O14975)
T1 construct: SLC27A2 (NM_003645, human tagged ORF clone) expressed in HEK293 cells
Experiment: LC–MS/MS detection of EVT0185-CoA in HEK293 cells overexpressing SLC27A2, […] EVT0185
Assay type: cell-based

Structure (SMILES): CC(C)(CCCCc1ccc(CCCCC(C)(C)C(=O)O)cc1)C(=O)O [EVT0185, 6-[4-(5-carboxy-5-methyl-hexyl)-phenyl]−2,2-dimethylhexanoic acid]
- LC-MS/MS detection of EVT0185-CoA in HEK293 cells overexpressing SLC27A2, 30 μM: Incubation of HEK293 cells with EVT0185 followed by mass spectrometry analysis indicated that only cells expressing SLC27A2 generated the CoA thioester
